Reference: ChEMBL document CHEMBL1201862, “PubChem BioAssay data set” (2004)
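Grown in 96-well plates, cells were treated for 48 hours with each compound at five concentrations. Insufficient inhibition: endpoint recorded as highest concentration tested. GI50 marks 50% less growth.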 Active and inactive are the calls of the source. No stated cut-off is given here; in the data, active = GI50 up to about 1.1 µM and inactive = higher.

Legend:
Assay in all cases: NCI-60 cell line screen, 48 h
[1] = tested on: OVCAR-5
[2] = tested on: KM12
[3] = tested on: OVCAR-8
[4] = tested on: OVCAR-3
[5] = tested on: DMS-273
[6] = tested on: HOP-92
[7] = tested on: M14
[8] = tested on: SK-MEL-28
[9] = tested on: HCC 2998
[10] = tested on: ACHN
[11] = tested on: NCI-H23
[12] = tested on: DLD-1
[13] = tested on: MOLT-4
[14] = tested on: SK-MEL-2
[15] = tested on: U-251
[16] = tested on: 786-0
[17] = tested on: SF-539
[18] = tested on: K562
[19] = tested on: SNB-19
[20] = tested on: UACC-62
[21] = tested on: COLO 205
[22] = tested on: SW-620
[23] = tested on: M19-MEL
[24] = tested on: CCRF-CEM
[25] = tested on: UO-31
[26] = tested on: KM-20L2
[27] = tested on: XF498
[28] = tested on: NCI-H460
[29] = tested on: SK-OV-3
[30] = tested on: SNB-75
[31] = tested on: HT-29
[32] = tested on: HOP-62
[33] = tested on: SNB-78
[34] = tested on: RXF 393
[35] = tested on: SK-MEL-5
[36] = tested on: TK-10
[37] = tested on: A549
[38] = tested on: Malme-3M
[39] = tested on: IGROV-1
[40] = tested on: RPMI-8226
[41] = tested on: HCT-116
[42] = tested on: LOX IMVI
[43] = tested on: DMS-114
[44] = tested on: EKVX
[45] = tested on: HL-60
[46] = tested on: UACC-257
[47] = tested on: LXFL 529
[48] = tested on: NCI-H522
[49] = tested on: A498
[50] = tested on: SN12C
[51] = tested on: HCT-15
[52] = tested on: SF-295
[53] = tested on: OVCAR-4
[54] = tested on: SF-268
[55] = tested on: NCI-H226
[56] = tested on: CAKI-1
[57] = tested on: HOP-18
[58] = tested on: SR

Cc1ccc(S(=O)(=O)NC(=O)NC23CC4CC(CC(F)(C4)C2)C3)cc1
GI50 [1]: > 100 µM (inactive) | GI50 [2]: > 100 µM (inactive) | GI50 [3]: > 100 µM (inactive) | GI50 [4]: > 100 µM (inactive) | GI50 [5]: > 100 µM (inactive) | GI50 [6]: > 100 µM (inactive) | GI50 [7]: > 100 µM (inactive) | GI50 [8]: > 100 µM (inactive) | GI50 [9]: > 100 µM (inactive) | GI50 [10]: > 100 µM (inactive) | GI50 [11]: > 100 µM (inactive) | GI50 [12]: > 100 µM (inactive) | GI50 [13]: > 100 µM (inactive) | GI50 [14]: > 100 µM (inactive) | GI50 [15]: > 100 µM (inactive) | GI50 [16]: > 100 µM (inactive) | GI50 [17]: > 100 µM (inactive) | GI50 [18]: > 100 µM (inactive) | GI50 [19]: > 100 µM (inactive) | GI50 [20]: > 100 µM (inactive) | GI50 [21]: > 100 µM (inactive) | GI50 [22]: > 100 µM (inactive) | GI50 [23]: > 100 µM (inactive) | GI50 [24]: > 100 µM (inactive) | GI50 [25]: > 100 µM (inactive) | GI50 [26]: > 100 µM (inactive) | GI50 [27]: > 100 µM (inactive) | GI50 [28]: > 100 µM (inactive) | GI50 [29]: > 100 µM (inactive) | GI50 [30]: 73.6 µM (inactive) | GI50 [31]: > 100 µM (inactive) | GI50 [32]: > 100 µM (inactive) | GI50 [33]: > 100 µM (inactive) | GI50 [34]: > 100 µM (inactive) | GI50 [35]: > 100 µM (inactive) | GI50 [36]: > 100 µM (inactive) | GI50 [37]: > 100 µM (inactive) | GI50 [38]: > 100 µM (inactive) | GI50 [39]: > 100 µM (inactive) | GI50 [40]: > 100 µM (inactive) | GI50 [41]: > 100 µM (inactive) | GI50 [42]: > 100 µM (inactive) | GI50 [43]: > 100 µM (inactive) | GI50 [44]: > 100 µM (inactive) | GI50 [45]: > 100 µM (inactive) | GI50 [46]: > 100 µM (inactive) | GI50 [47]: > 100 µM (inactive) | GI50 [48]: > 100 µM (inactive) | GI50 [49]: > 100 µM (inactive)

C/C(CN1C(=O)c2ccccc2C1=O)=N\NS(=O)(=O)c1ccc(Br)cc1
GI50 [1]: > 100 µM (inactive) | GI50 [2]: > 100 µM (inactive) | GI50 [3]: > 100 µM (inactive) | GI50 [4]: > 100 µM (inactive) | GI50 [5]: > 100 µM (inactive) | GI50 [6]: 74.8 µM (inactive) | GI50 [7]: > 100 µM (inactive) | GI50 [8]: > 100 µM (inactive) | GI50 [9]: > 100 µM (inactive) | GI50 [10]: > 100 µM (inactive) | GI50 [11]: > 100 µM (inactive) | GI50 [12]: > 100 µM (inactive) | GI50 [13]: > 100 µM (inactive) | GI50 [14]: > 100 µM (inactive) | GI50 [15]: > 100 µM (inactive) | GI50 [16]: > 100 µM (inactive) | GI50 [17]: > 100 µM (inactive) | GI50 [18]: > 100 µM (inactive) | GI50 [19]: > 100 µM (inactive) | GI50 [20]: > 100 µM (inactive) | GI50 [21]: > 100 µM (inactive) | GI50 [50]: > 100 µM (inactive) | GI50 [22]: > 100 µM (inactive) | GI50 [23]: > 100 µM (inactive) | GI50 [24]: > 100 µM (inactive) | GI50 [25]: > 100 µM (inactive) | GI50 [51]: > 100 µM | GI50 [26]: > 100 µM (inactive) | GI50 [28]: > 100 µM (inactive) | GI50 [29]: > 100 µM (inactive) | GI50 [30]: > 100 µM (inactive) | GI50 [31]: > 100 µM (inactive) | GI50 [32]: > 100 µM (inactive) | GI50 [33]: > 100 µM (inactive) | GI50 [34]: > 100 µM (inactive) | GI50 [35]: > 100 µM (inactive) | GI50 [36]: > 100 µM (inactive) | GI50 [37]: > 100 µM (inactive) | GI50 [52]: > 100 µM (inactive) | GI50 [38]: > 100 µM (inactive) | GI50 [39]: > 100 µM (inactive) | GI50 [40]: > 100 µM (inactive) | GI50 [41]: > 100 µM (inactive) | GI50 [53]: > 100 µM (inactive) | GI50 [42]: > 100 µM (inactive) | GI50 [43]: 10.9 µM (inactive) | GI50 [44]: > 100 µM (inactive) | GI50 [54]: > 100 µM (inactive) | GI50 [45]: > 100 µM (inactive) | GI50 [46]: > 100 µM (inactive) | GI50 [55]: > 100 µM (inactive) | GI50 [47]: > 100 µM (inactive) | GI50 [48]: > 100 µM (inactive) | GI50 [56]: > 100 µM (inactive) | GI50 [49]: > 100 µM (inactive) | GI50 [57]: > 100 µM (inactive)

CCCCCCCCCCSC(=O)NC
GI50 [1]: 80.9 µM (inactive) | GI50 [2]: 35.2 µM (inactive) | GI50 [3]: 28 µM (inactive) | GI50 [4]: 54.2 µM (inactive) | GI50 [5]: 29.2 µM (inactive) | GI50 [6]: 18.6 µM (inactive) | GI50 [7]: 22.4 µM (inactive) | GI50 [8]: 26.3 µM (inactive) | GI50 [9]: 47.2 µM (inactive) | GI50 [10]: 40.4 µM (inactive) | GI50 [11]: 30.5 µM (inactive) | GI50 [12]: 36.9 µM (inactive) | GI50 [13]: 18.5 µM (inactive) | GI50 [14]: 22.5 µM (inactive) | GI50 [15]: 25.8 µM (inactive) | GI50 [16]: 35.2 µM (inactive) | GI50 [17]: 35.3 µM (inactive) | GI50 [18]: 25.8 µM (inactive) | GI50 [19]: 28.8 µM (inactive) | GI50 [20]: 35.5 µM (inactive) | GI50 [21]: 34.9 µM (inactive) | GI50 [50]: 25.7 µM (inactive) | GI50 [22]: 39.6 µM (inactive) | GI50 [23]: 38.1 µM (inactive) | GI50 [24]: 18.9 µM (inactive) | GI50 [25]: 23.4 µM (inactive) | GI50 [51]: 22.6 µM | GI50 [26]: > 10 µM (inactive) | GI50 [27]: 21.3 µM (inactive) | GI50 [28]: 33.3 µM (inactive) | GI50 [29]: > 100 µM (inactive) | GI50 [30]: 48.8 µM (inactive) | GI50 [31]: 29.7 µM (inactive) | GI50 [34]: 19.9 µM (inactive) | GI50 [35]: 20.5 µM (inactive) | GI50 [36]: 37.9 µM (inactive) | GI50 [37]: 37.8 µM (inactive) | GI50 [52]: 50.1 µM (inactive) | GI50 [38]: 36.3 µM (inactive) | GI50 [39]: 79.8 µM (inactive) | GI50 [40]: 21.9 µM (inactive) | GI50 [53]: 36.7 µM (inactive) | GI50 [42]: 32.9 µM (inactive) | GI50 [44]: 27.2 µM (inactive) | GI50 [54]: 31.8 µM (inactive) | GI50 [45]: 19 µM (inactive) | GI50 [46]: 27.9 µM (inactive) | GI50 [47]: 49.4 µM (inactive) | GI50 [48]: 21.3 µM (inactive) | GI50 [56]: 25.9 µM (inactive) | GI50 [49]: 37.5 µM (inactive) | GI50 [57]: 63 µM (inactive)

O=C(/C=N/O)Nc1cccc(Cl)c1I
GI50 [1]: > 100 µM (inactive) | GI50 [2]: 65.6 µM (inactive) | GI50 [3]: 81.5 µM (inactive) | GI50 [4]: 30.1 µM (inactive) | GI50 [5]: > 100 µM (inactive) | GI50 [7]: 47.2 µM (inactive) | GI50 [8]: > 100 µM (inactive) | GI50 [9]: > 100 µM (inactive) | GI50 [10]: 57.4 µM (inactive) | GI50 [11]: 59.2 µM (inactive) | GI50 [12]: 63.4 µM (inactive) | GI50 [13]: 42.3 µM (inactive) | GI50 [14]: 24.9 µM (inactive) | GI50 [15]: 39.2 µM (inactive) | GI50 [16]: > 100 µM (inactive) | GI50 [18]: 53.5 µM (inactive) | GI50 [19]: 55.7 µM (inactive) | GI50 [20]: 43.1 µM (inactive) | GI50 [21]: 89.9 µM (inactive) | GI50 [50]: 47.8 µM (inactive) | GI50 [22]: > 100 µM (inactive) | GI50 [23]: 80.7 µM (inactive) | GI50 [24]: 49.1 µM (inactive) | GI50 [25]: 23.9 µM (inactive) | GI50 [51]: 79.1 µM | GI50 [26]: > 100 µM (inactive) | GI50 [27]: 46.3 µM (inactive) | GI50 [28]: > 100 µM (inactive) | GI50 [29]: 28.5 µM (inactive) | GI50 [30]: 12.8 µM (inactive) | GI50 [31]: > 100 µM (inactive) | GI50 [32]: 83.4 µM (inactive) | GI50 [34]: 23.7 µM (inactive) | GI50 [35]: 40.8 µM (inactive) | GI50 [36]: 44.7 µM (inactive) | GI50 [37]: 46 µM (inactive) | GI50 [58]: 30.7 µM (inactive) | GI50 [52]: 50.7 µM (inactive) | GI50 [38]: 40.6 µM (inactive) | GI50 [39]: 26.5 µM (inactive) | GI50 [40]: 30.6 µM (inactive) | GI50 [41]: 53.6 µM (inactive) | GI50 [53]: 28.9 µM (inactive) | GI50 [42]: 96.8 µM (inactive) | GI50 [43]: 23.3 µM (inactive) | GI50 [44]: 8.83 µM (inactive) | GI50 [54]: 35.9 µM (inactive) | GI50 [45]: 34.4 µM (inactive) | GI50 [46]: 56.9 µM (inactive) | GI50 [55]: > 100 µM (inactive) | GI50 [47]: 25 µM (inactive) | GI50 [48]: 26.1 µM (inactive) | GI50 [56]: 32.3 µM (inactive) | GI50 [49]: 27.7 µM (inactive)
